Results taken from patent publication US20240082282A1 (priority 2020, published 2024).

Tested on: murine gut microbiome
Assay: Impact on the murine fecal microbiome (16S rRNA sequencing)
Details: mouse, in vivo
Description: Stool samples were collected and V4 region of the 16s rRNA gene was amplified using primers and sequenced (IonTorrent).
Fecal pellets were collected 3 days before and 3 days after antibiotic treatment and were stored at −80° C. in PBS. Sequencing of a stool pellet from each mouse from before and after treatment was performed by MR DNA (www.mrdnalab.com, Shallowater, TX, USA) on an Ion Torrent PGM. Using PCR primers, the V4 variable region of the 16SrRNA gene was amplified in a single-step 30 cycle PCR with the HotStarTaq Plus Master Mix Kit (Qiagen, USA). The following conditions were used: 94° C. for 3 minutes and 30 cycles of 94° C. for 30 seconds, 53° C. for 40 seconds and 72° C. for 1 minute, then a final elongation step for 5 minutes at 72° C. […] Barcodes and primers and then sequences<150 bp were removed. Further, sequences with homopolymer runs exceeding 6 bp and sequences with ambiguous calls were removed. The sequences were then denoised, OTUs were generated, and chimeras were removed; OTUs were clustered at 3% divergence. Taxonomic classification was performed using BLASTn against a database derived from RDPII available at www.rdp.cme.msu.edu) and NCBI (www.ncbi.nlm.nih.gov). The change in relative abundance of the most abundant genera from before to after treatment of each individual mouse was reported. Further, raw sequences were processed in Qiita (Gonzalez, A., et al. (2018). Nat Methods 15, 796-798; the contents of which are herein incorporated by reference in its entirety) and were demultiplexed, trimmed to 100 bp, and closed reference OTU picking was performed against the Greengenes database at 97% similarity (McDonald, D. et al. (2012). ISME J 6, 610-618; the contents of which are herein incorporated by reference in its entirety). The alpha diversity based on the Simpson index was calculated in Qiita. The change in the Simpson index was calculated for the fecal microbiome of each mouse from before to after treatment. Statistical significance was calculated using a one-way ANOVA with Tukey's multiple comparisons test (p<0.05).

Changes in the composition of the microbiota: significant changes
SMILES: CC1(C)S[C@@H]2[C@H](NC(=O)[C@H](N)c3ccccc3)C(=O)N2[C@H]1C(=O)O [Ampicillin, reference compound]
